Experimental data as given in US20090054376A1, “BENZOFURAN DERIVATIVES WITH THERAPEUTIC ACTIVITIES” (Pharmos Corporation, priority 2005, published 2009).

What was measured:
[1] = target: T1, Human CB2 Receptor (Homo sapiens, UniProt P34972); experiment: [35S]GTPγS-binding assay, hCB2; assay type: biochemical; settings: GTPγS; for agonistic activity toward cannabinoid receptors (in words): hCB1 and hCB2
T1 construct: host or cells: Sf9 or HEK-293 cells (membranes)
Description: (§1) Functional activity of compounds of the invention toward the cannabinoid receptors was determined by stimulation of [^35S]-GTPγS binding using membranes from HEK-293 cells expressing the hCB1 receptor and membranes expressing the hCB2 receptor derived from either Sf9 (PerkinElmer) or from HEK-293 cells. Activities were compared to that of the known cannabinoid full agonist CP55940 (Alexis). The purpose of this experiment is to determine the potency of the compounds of the invention as agonists or antagonists toward each of the receptor tested.
(§2) [^35S]-GTPγS binding reactions were performed at 30° C. in 96-well plates containing 5-10 μg membrane protein suspended in 0.1 ml binding buffer [20 mM HEPES-NaOH, pH 7.4, 5 mM MgCl2, 100 mM NaCl, 0.2% (w/v) bovine serum albumin] supplemented with 50 μM GDP and 0.06 nM-10 μM of the compound being tested. Binding was initiated by the addition of [^35S]GTPγS (0.3 nM final concentration). Incubations were performed for 90 minutes and were terminated by filtration on GF/C filter plates (PerkinEimer). Filters were washed ten times with ice-cold wash buffer (20 mM HEPES-NaOH, pH 7.4, 10 mM sodium pyrophosphate). Non-specific binding was measured in the presence of 15 μM GTPγS.
(§3) Assays were performed in duplicates. Data was analyzed by plotting on the X axis the log concentration against percent of specific [^35S]GTPγS binding out of basal [^35S]GTPγS binding on the Y axis, non-linear regression is then performed using GraphPad Prism, version 3.0 (GraphPad, San Diego, Calif.) to calculate the EC50 and Emax of the compound. The EC50 value represents the concentration at which there is 50% [^35S]GTPγS binding and the Emax value the upper plateau of the curve.

[2] = target: T2, Human CB1 Receptor (Homo sapiens, UniProt P21554); experiment: [35S]GTPγS-binding assay, hCB1; assay type: biochemical; settings: NB = no binding; for Emax: upper plateau of curve
T2 construct: expressed in transfected cells; host or cells: HEK-293 cells (membranes)
T2 sequence (P21554 whole entry): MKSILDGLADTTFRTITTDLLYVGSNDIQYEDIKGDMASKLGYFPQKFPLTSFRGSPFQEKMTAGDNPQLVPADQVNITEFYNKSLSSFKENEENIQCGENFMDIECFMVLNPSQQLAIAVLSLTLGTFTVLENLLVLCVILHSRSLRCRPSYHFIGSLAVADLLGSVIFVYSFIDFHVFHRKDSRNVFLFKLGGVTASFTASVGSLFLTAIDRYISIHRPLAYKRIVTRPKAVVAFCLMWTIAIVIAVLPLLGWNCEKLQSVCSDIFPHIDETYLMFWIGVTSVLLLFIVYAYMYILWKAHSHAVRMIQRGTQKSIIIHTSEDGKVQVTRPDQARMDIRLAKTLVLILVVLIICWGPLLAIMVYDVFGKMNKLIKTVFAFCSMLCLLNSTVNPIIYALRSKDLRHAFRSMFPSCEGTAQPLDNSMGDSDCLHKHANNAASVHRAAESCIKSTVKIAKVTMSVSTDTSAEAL
Description: as §1, §2, §3

[3] = tested on: CB1 related cannabimimetic activity; experiment: Safety: body temperature, catalepsy, spontaneous locomotor activity, elevated plus maze, sensitivity to touch; assay type: in vivo, ICR male mice; settings: for adverse cannabimimetic activities in any of the parameters monitored: 2 mg/kg i.v.
Description: In the present study, impact of compounds of the invention on the central nervous system was measured by monitoring the body temperature, catalepsy and spontaneous locomotor activity of rodents. These activities are part of the Tetrad assays which are indicative, if all parameters are affected, of CB1 mediated activity. In addition, lack of CNS psychomimetic effect was assessed in the elevated plus maze model. Finally, sensitivity to touch was determined in order to evaluate peripheral CB1 related activity.
ICR male mice (average body weight 25 g, Harlan, Israel) were administered the compounds of the invention i.v. at a dose of 2 mg/kg and at a volume dose of 5 ml/kg. The psychoactive cannabinoid HU-210 was used as positive control at the 100-fold lower dose of 0.02 mg/kg i.v. The following measurements were made starting 15 minutes after compound administration. All tests were completed for each animal within approximately 10 minutes. Rectal temperature was monitored using a thermistor probe (YSI model 400, USA). Spontaneous locomotion was assessed using the open field methodology. The number of squares crossed by the animals were recorded and analyzed during a period of three minutes. At the end of the open field test, the animals were tested for catalepsy symptoms. This was carried out by gently forcing the animal to stand on its hind paws when its front paws are holding on an elevated beam. The time for the animal to step down of the beam was measured in seconds. A normal animal withdraws the beam immediately whereas cataleptic animal tend to stay on the beam. The longer the animal stays leaning on the beam, the more cataleptic the animal is. The behavior of the animals was then assessed in the elevated plus maze. The elevated plus maze consists of two open arms and two arms that are enclosed by high walls (arms 30×10 cm, wall height 20 cm). The elevated plus maze is usually elevated 80 cm above the floor. The mouse is placed on the maze head facing an open arm, and the time spent in the different compartments of the maze (open arms, closed arms and central area) are measured for the next 5 minutes. Results are expressed as percent of the time spent in the open arms, normal animals preferring to stay in the closed arms of the maze. Finally, animals were gently touched by an observer blinded for the treatment group and their sensitivity scored according to the following scale: 0 not sensitive, 1 sensitive and 2 highly sensitive. Results are expressed as average±SEM. At the end of the study, the animals were euthanized.

[4] = tested on: visceral pain writhing responses; experiment: Visceral pain, acetic acid induced writhing responses; assay type: in vivo, Male ICR mice; settings: Mus musculus, iv, single dose 2 mg/kg i.v., compared to untreated group; read-out: Percent Inhibition of Visceral Pain Writhing Responses
Description: Male ICR mice (average body weight 25 g, Harlan, Israel) were pretreated by i.v. injection at volume dose of 5 ml/kg of vehicle, control and test compounds at various doses. Other routes of administration were tested for selected compounds including i.m. or s.c. injections at volume dose of 2.5 ml/kg and p.o. gavage at volume dose of 5 ml/kg. Compounds were dissolved in CREMOPHOR®:Ethanol and diluted 1:20 in saline prior to injection or gavage. Compounds administered i.v. were injected fifteen minutes before pain induction, whereas compounds administered i.m., s.c. or p.o. were supplied thirty minutes before pain induction, unless otherwise indicated. Each treatment group, except for controls comprising at least 30 animals, was composed of at least 6 animals. Fifteen or thirty minutes after drug administration, depending on the route of administration, the mice were injected i.p. with 10 ml/kg of 0.6% acetic acid and the number of visceral pain related behaviors (writhing movements globally defined as WR, i.e. stretching, contractions of the abdomen accompanied by an elongation of the body and extension of the hind limbs) was counted over a period of 5 minutes, starting 5 minutes after the acetic acid administration. These visceral pain related behaviors were globally defined as writhing responses (WR). The results are expressed as mean number of writhing responses ±SEM. Data were analyzed using analysis of variance (ANOVA) followed by post-hoc Fisher test.

[5] = tested on: carrageenan induced inflammatory pain and paw edema; experiment: Inflammatory pain and paw edema induced by carrageenan; assay type: in vivo, Male Sprague Dawley rats; settings: Rattus norvegicus, ip; 10 mg/kg i.p., 3 hours after carrageenan, reduction in paw swelling; read-out: Percent Inhibition of Inflammatory Pain Responses, Edema
Description: Male Sprague Dawley rats (average body weight 200 g, Harlan, Israel) were transiently sedated by placement on dry ice for the duration of the injections. Rats were injected subcutaneously, in the subplantar region of one (right) paw with 0.1 ml of 2% w/v λ Carrageenan in sterile saline. […] Test compounds were, unless otherwise stated, administered i.p. at initial single dose of 3, 10 or 20 mg/kg, and volume dose of 5 ml/kg, immediately after the carrageenan injection. Selected compounds were also tested p.o. following oral gavage. Vehicle and celecoxib treated animals were used as controls. Each treatment group comprised at least seven animals.
Before induction of inflammatory pain and three hours after injection, the animals reactions to pain stimuli were tested in two systems. The first stimulus was thermal and assessed by the Plantar Test according to Hargreaves, using Ugo Basile Model 7370. The scale was set to an intensity of 50 arbitrary units. The latency time till the animal lift a paw as a reaction to the thermal stimulus was recorded for both the inflamed and non-inflamed hind paws. The second stimulus was mechanical (tactile) and assessed using a Dynamic Plantar Sesthesiomether (Ugo Basile Model 73400-002). […] Finally, the impact on paw edema was assessed. Paw thickness was measured using a dial thickness gauge (Spring-dial, constant low pressure gauge, Mitutoyo, TG/L-1, 0.01 mm) and paw volume was measured using a plethysmometer (model #7150, Ugo Basile, Italy). At the end of the study, animals were euthanized.
The results are measured as the differences between the two hind paws at time 0 and 3 hours both as ALT, for the latency time in the thermal part of the study, and as ΔForce, for the mechanical part of the study. The paw volume is expressed as percent from vehicle treated animals. Results are expressed as mean±SEM for each treatment group and the differences among those groups are analyzed by analysis of variance (ANOVA) followed by post-hoc Tukey's test.
Results refer to i.p. treatment with 10 mg/kg. Results marked with one asterisk refer to a dose 3 mg/kg, whereas two asterisks refer to 20 mg/kg. Celecoxib is included as reference.

[6] = Human CB2 Receptor, NB = no binding
[7] = Human CB2 Receptor, upper plateau of curve, NB = no binding

T1 sequence (P34972 whole entry): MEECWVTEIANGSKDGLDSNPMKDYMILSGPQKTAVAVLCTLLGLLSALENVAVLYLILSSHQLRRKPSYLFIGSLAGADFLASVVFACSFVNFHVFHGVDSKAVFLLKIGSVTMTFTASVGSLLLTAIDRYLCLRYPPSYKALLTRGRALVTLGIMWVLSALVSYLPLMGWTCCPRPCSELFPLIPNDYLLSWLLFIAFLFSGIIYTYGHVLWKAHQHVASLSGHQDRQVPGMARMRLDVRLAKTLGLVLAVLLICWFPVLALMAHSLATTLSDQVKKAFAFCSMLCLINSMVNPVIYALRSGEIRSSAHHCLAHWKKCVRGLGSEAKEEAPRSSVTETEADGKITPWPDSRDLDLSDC

Q: How did the EC50 [1, 6] turn out when CCCCCCC(C)(C)c1cc(O)c2c3c(oc2c1)CC(C)(C)CC3 [Compound C6M-10, 3-(1,1-Dimethylheptyl)-7,7-dimethyl-6,7,8,9-tetrahydro-dibenzofuran-1-ol] was run?
A: 0.025 µM

Q: And the Emax [1, 7]?
A: 72%

Q: And the “agonistic activity toward cannabinoid receptors (in words)” value [1]?
A: agonists specific toward the CB2 receptor

Q: What about the EC50 [2] of the same molecule?
A: 5.3 µM

Q: What about the Emax [2] of the same molecule?
A: 132%

Q: Which results are given for CCCCCCC(C)(C)c1cc(OC(=O)C=CC(=O)O)c2c(c1)OC1CC(C)(C)CCC21 (stereo not shown) [Compound C6S-37, But-2-enedioic acid mono-[3-(1,1-dimethylheptyl)-7,7-dimethyl-5a,6,7,8,9,9a-hexahydro-dibenzofuran-1-yl]ester]?
A: EC50 [1, 6]: 0.024 µM; Emax [1, 7]: 44%; agonistic activity toward cannabinoid receptors (in words) [1]: agonists specific toward the CB2 receptor; EC50 [2]: 3.97 µM; Emax [2]: 102%

Q: Which results are given for CCCCCCC(C)(C)c1cc(O)c2c(c1)OC(C)(C)[C@@H]1CC=C(CO)C[C@@H]21 [HU-210, reference compound]?
A: less squares crossed ([3]; 0.02 mg/kg i.v.): more than 50%; number of squares crossed (spontaneous locomotor activity) ([3]; 0.02 mg/kg i.v., period of three minutes, vehicle 75.63±6.24): 32.33±10.21; drop of rectal temperature ([3]; 0.02 mg/kg i.v., statistically significant): about 2 °C; sensitivity to touch, average score ([3]; 0.02 mg/kg i.v., scale 0 not sensitive, 1 sensitive, 2 highly sensitive): above 1; rectal temperature ([3]; 0.02 mg/kg i.v., vehicle 38.88±0.11° C.): 36.73±0.29 °C; time spent in the open arms of the elevated plus maze ([3]; 0.02 mg/kg i.v., vehicle about 15%): ~41%

Q: For CCCCCCC(C)(C)c1cc(O)c2c(c1)OC1C(=NO)CCCC21 (stereo not shown) [Compound C6S-27, 7-(1,1-Dimethylheptyl)-9-hydroxy-2,3,4a,9b-tetrahydro-1H-dibenzofuran-4-one oxime], which EC50 [1, 6] is on record?
A: 5.56 µM

Q: What about the Emax [1, 7] of the same molecule?
A: 64%

Q: And the EC50 [2]?
A: > 10 µM

Q: With CCCCCCC(C)(C)c1cc(OCC(=O)N(CC)CC)c2c(c1)OC1C(O)CCCCC21 (stereo not shown) [Compound C7S-17, 2-[2-(1,1-Dimethylheptyl)-9-hydroxy-5,6,7,8,9,9a-hexahydro-4bH-10-oxa-benzo[ ]azulen-4-yloxy]-N,N-diethyl-acetamide] as the molecule, how does the rectal temperature ([3]; 40 mg/kg i.v., 0.5 hr after injection) read?
A: 37.84±0.62 °C

Q: What about the “rectal temperature below controls” value ([3]; 40 mg/kg i.v., 0.5 hr after injection, not statistically significant) of the same molecule?
A: about 0.9 °C

Q: And the “rectal temperature (in words)” value ([3]; 40 mg/kg i.v., three hours after injection)?
A: back to baseline

Q: Which Emax [1, 7] does the source give for CCCCCCC(C)(C)c1ccc([C@@H]2C[C@H](O)CC[C@H]2CCCO)c(O)c1 [CP55940, reference compound] here?
A: 30 to 60%

Q: And the Emax [2]?
A: 50 to 100%

Q: What does the source list for CCCCCCC(C)(C)c1cc(O)c2c(c1)OC1C2CCC(C)(C)C1O (stereo not shown) [Compound C6S-8, 3-(1,1-dimethylheptyl)-7,7-dimethyl-5a,6,7,8,9,9a-hexahydro-dibenzofuran-1,6-diol]?
A: inhibition in vivo at 2 mg/kg [4]: 37%; adverse cannabimimetic activities in any of the parameters monitored [3]: None

Q: Which results are given for CCCCCCC(C)(C)c1cc(O)c2c(c1)OC1C(O)CCCCC21 (single isomer, unassigned) [Compound C7S-30, 2-(,1-dimethylheptyl)-5,6,7,8,9,9a-hexahydro-4bH-10-oxa-benzo[α]azulen-4,9-diol]?
A: EC50 [1, 6]: 1.03 µM; Emax (%) [1, 7]: 66%; EC50 [2]: > 10 µM

Q: CC1(C)CCC2c3c(O)cc(C4(CCc5ccccc5)SCCS4)cc3OC2C1 (stereo not shown) [Compound C6S-38, 7,7-dimethyl-3-(2-phenethyl-[1,3]dithiolan-2-yl)-5a,6,7,8,9,9a-hexahydro-dibenzofuran-1-ol] was tested. Which EC50 [1, 6] did it give?
A: 0.184 µM

Q: What about the Emax [1, 7] of the same molecule?
A: 19%

Q: And the EC50 [2]?
A: > 10 µM

Q: How did the EC50 [1, 6] turn out when CCCCCCC(C)(C)c1cc(O)c2c(c1)OC1CCCCC(C(=O)O)C21 (stereo not drawn) [Compound C7S-31, 2-(1,1-Dimethylheptyl)-4-hydroxy-5,6,7,8,9,9a-hexahydro-4bH-10-oxa-benzo[α]azulen-5-carboxylic acid] was run?
A: 0.641 µM

Q: What about the Emax [1, 7] of the same molecule?
A: 54%

Q: What about the EC50 [2] of the same molecule?
A: > 10 µM

Q: With CCCCCCC(C)(C)c1cc(OC)cc2oc3c(c12)CC(C)(C)CC3=O [Compound C6M-7, 9-(1,1-dimethylheptyl)-7-methoxy-2,2-dimethyl-2,3-dihydro-1H-dibenzofuran-4-one] as the molecule, how does the “adverse cannabimimetic activities in any of the parameters monitored” value [3] read?
A: None

Q: And the inhibition in vivo at 10 mg/kg [5]?
A: 26%
